# Reference: PMC5581131, “The novel sphingosine-1-phosphate receptors antagonist AD2900 affects lymphocyte activation and inhibits T-cell entry into the lymph nodes” (Oncotarget, 2017)
# Legend:
# TNF-α = TNF-α secretion from activated PBMCs, ELISA; type: cell-based, human; details: 1-day pretreatment, 5th day of MLR
# Protocol: To better characterize the effect of AD2900 on activated PBMCs, the influence of AD2900 on apoptosis and cytokine secretion was tested. After 5 days of MLR, the cells were collected for apoptosis evaluation, while the supernatant was collected for ELISA test. Apoptosis was induced on the activated PBMCs only at higher concentrations of AD2900, above 10 μM (Figure 1C). Therefore, only a small part of the effect of AD2900 on the suppression of lymphocytic proliferation might be attributed to apoptosis. AD2900-induced inhibition of proliferation was accompanied by a reduced level of IFN-γ concentrations in the supernatant (Figure 1D).
# Human PBLs were collected from human whole blood collected from healthy donors. Subsequently, the cells were centrifuged on a Ficoll-Paque gradient (Fresenius Kabi Norge AS, Oslo, Norway) and were isolated from the interphase layer. For the human MLR experiment, PBMCs from one healthy donor were pretreated for 1 day with AD2900, AD2730, AD2750, YZ297, YZ158, FTY720, or SEW2871. […] For the thymidine incorporation assay, after 4 days of co-culture, cells were pulsed with ^3H-thymidine at 1 μCi (0.037MBq) per well (PerkinElmer, MA, USA) for 16 additional hours and then harvested onto glass-fiber filters. ^3H-thymidine incorporation was measured using Top Count. […]
# CCR7-expressing PBMCs = assay: CCR7 surface expression on PBMCs, FACS; type: cell-based, human; details: 100 nM, 30-min treatment
# Protocol: Figure 3 AD2900 downregulates the percentage of S1P1- and CCR7-expressing cells in PBMCs (A, B) The percentages of S1P1-positive PBMCs after the treatment with different concentrations of AD2900, FTY720, or SEW2871 and at different time points were examined by FACS analysis. S1P1 expression was tested in PBMCs after a 30-min treatment with AD2900 at different concentrations (A) or after a 30-min or 60-min treatment with 100 nM AD2900, FTY720, or SEW2871 (B). (C) The percentage of CCR7-positive PBMCs was tested by FACS analysis after a 30-min treatment with 100 nM AD2900, FTY720, or SEW2871. All the significances are compared to untreated PBMCs. Results summarize the results of at least four independent experiments. Results of Student’s t-test: *(P < 0.05, two-tailed test), ** (P < 0.01, two-tailed test), *** (P < 0.001, two-tailed test), **** (P < 0.0001, two-tailed test).
# CCR7 is known as a lymph node homing receptor, and it is also involved in lymphocyte recirculation. Together with S1P1, CCR7 controls the circulation of lymphocytes between the SLOs and the blood or lymph. We therefore examined the effect of AD2900 on the level of CCR7-surface-expressing PBMCs.
# Human PBMCs: For the apoptosis test, anti-AnnexinV-FITC (BD Biosciences, CA, USA) was used. […]
smiles,measurement,setting,value
CCCCCCCCCCCCCCCCNC(CO)(CO)CO [AD2900],TNF-α concentration in the culture media,TNF-α,not influenced
same,reduction of the normal percentage of CCR7-expressing cell population,CCR7-expressing PBMCs,22% ± 5%
